Tested on: 171881-019-R-J1-PDC tumor spheroids, viability
Assay: Anticancer human tumor 171881-019-R-J1-PDC patient-derived invasive breast carcinoma cell line growth inhibition [GQUAD]
Details: spheroids with HUVEC and MSC; for IC50: curve of first compound; for viability, T/C: stronger effect = lower value
In short: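 Multi-cell-type spheroids of tumor cells with HUVEC and mesenchymal stem cells, treated with drug combinations. Concentrations descend in half-log steps from near clinical Cmax, or from 10 microM where Cmax is unknown; viability read-out.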

[1] = second compound 0.0316 µM, first compound 0.0316 µM
[2] = second compound 0.0316 µM, first compound 0.1 µM
[3] = second compound 0.0316 µM, first compound 0.316 µM
[4] = second compound 0.0316 µM, first compound 1 µM
[5] = second compound 0.0316 µM, first compound 3.16 µM
[6] = second compound 0.0316 µM, first compound 10 µM
[7] = second compound 0.1 µM, first compound 0.0316 µM
[8] = second compound 0.1 µM, first compound 0.1 µM
[9] = second compound 0.1 µM, first compound 0.316 µM
[10] = second compound 0.1 µM, first compound 1 µM
[11] = second compound 0.1 µM, first compound 3.16 µM
[12] = second compound 0.1 µM, first compound 10 µM
[13] = second compound 0.316 µM, first compound 0.0316 µM
[14] = second compound 0.316 µM, first compound 0.1 µM
[15] = second compound 0.316 µM, first compound 0.316 µM
[16] = second compound 0.316 µM, first compound 1 µM
[17] = second compound 0.316 µM, first compound 3.16 µM
[18] = second compound 0.316 µM, first compound 10 µM
[19] = second compound 1 µM, first compound 0.0316 µM
[20] = second compound 1 µM, first compound 0.1 µM
[21] = second compound 1 µM, first compound 0.316 µM
[22] = second compound 1 µM, first compound 1 µM
[23] = second compound 1 µM, first compound 3.16 µM
[24] = second compound 1 µM, first compound 10 µM
[25] = second compound 3.16 µM, first compound 0.0316 µM
[26] = second compound 3.16 µM, first compound 0.1 µM
[27] = second compound 3.16 µM, first compound 0.316 µM
[28] = second compound 3.16 µM, first compound 1 µM
[29] = second compound 3.16 µM, first compound 3.16 µM
[30] = second compound 3.16 µM, first compound 10 µM
[31] = second compound 10 µM, first compound 0.0316 µM
[32] = second compound 10 µM, first compound 0.1 µM
[33] = second compound 10 µM, first compound 0.316 µM
[34] = second compound 10 µM, first compound 1 µM
[35] = second compound 10 µM, first compound 3.16 µM
[36] = second compound 10 µM, first compound 10 µM
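Also: spheroids exposed to compounds for 7 days.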
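For viability, T/C in this document: 100% = DMSO vehicle control viability.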

## C=CC(=O)N1CCN(c2nc(=O)n(-c3c(C)ccnc3C(C)C)c3nc(-c4c(O)cccc4F)c(F)cc23)C(C)C1 (centres undefined) + Cc1cnc(CNC(=O)c2c(=O)c3ccc(N4CCCN(C)CC4)nc3n3c2sc2ccccc23)cn1
Second compound 0.0316 µM
  IC50: > 10 µM
Second compound 0.1 µM
  IC50: > 10 µM
Second compound 0.316 µM
  IC50: > 10 µM
Second compound 1 µM
  IC50: > 10 µM
Second compound 3.16 µM
  IC50: > 10 µM
Second compound 10 µM
  IC50: > 10 µM
[1]
  viability, T/C: 113%
[2]
  viability, T/C: 92.9%
[3]
  viability, T/C: 100%
[4]
  viability, T/C: 103%
[5]
  viability, T/C: 87.2%
[6]
  viability, T/C: 50.9%
[7]
  viability, T/C: 88.3%
[8]
  viability, T/C: 90.8%
[9]
  viability, T/C: 78.4%
[10]
  viability, T/C: 93.2%
[11]
  viability, T/C: 81.6%
[12]
  viability, T/C: 55.8%
[13]
  viability, T/C: 79.2%
[14]
  viability, T/C: 80.4%
[15]
  viability, T/C: 80.9%
[16]
  viability, T/C: 82.2%
[17]
  viability, T/C: 82.6%
[18]
  viability, T/C: 63.4%
[19]
  viability, T/C: 73.4%
[20]
  viability, T/C: 63.2%
[21]
  viability, T/C: 77.7%
[22]
  viability, T/C: 78.1%
[23]
  viability, T/C: 81.8%
[24]
  viability, T/C: 66.5%
[25]
  viability, T/C: 70.6%
[26]
  viability, T/C: 67.5%
[27]
  viability, T/C: 73.2%
[28]
  viability, T/C: 66.3%
[29]
  viability, T/C: 83.3%
[30]
  viability, T/C: 68.9%
[31]
  viability, T/C: 61.2%
[32]
  viability, T/C: 65.1%
[33]
  viability, T/C: 65.7%
[34]
  viability, T/C: 74.5%
[35]
  viability, T/C: 81.7%
[36]
  viability, T/C: 68%

## O=C(c1cc(Cc2n[nH]c(=O)c3ccccc23)ccc1F)N1CCN(C(=O)C2CC2)CC1 + Cc1cnc(CNC(=O)c2c(=O)c3ccc(N4CCCN(C)CC4)nc3n3c2sc2ccccc23)cn1
Second compound 0.0316 µM
  IC50: > 10 µM
Second compound 0.1 µM
  IC50: > 10 µM
Second compound 0.316 µM
  IC50: > 10 µM
Second compound 1 µM
  IC50: > 10 µM
Second compound 3.16 µM
  IC50: > 10 µM
Second compound 10 µM
  IC50: > 10 µM
[1]
  viability, T/C: 97.3%
[2]
  viability, T/C: 93.3%
[3]
  viability, T/C: 87%
[4]
  viability, T/C: 87.1%
[5]
  viability, T/C: 80.9%
[6]
  viability, T/C: 75.1%
[7]
  viability, T/C: 79.9%
[8]
  viability, T/C: 82.7%
[9]
  viability, T/C: 76.3%
[10]
  viability, T/C: 68.4%
[11]
  viability, T/C: 64.1%
[12]
  viability, T/C: 62%
[13]
  viability, T/C: 70.1%
[14]
  viability, T/C: 69.8%
[15]
  viability, T/C: 71.3%
[16]
  viability, T/C: 65%
[17]
  viability, T/C: 67.8%
[18]
  viability, T/C: 58.2%
[19]
  viability, T/C: 66.6%
[20]
  viability, T/C: 61.5%
[21]
  viability, T/C: 68.9%
[22]
  viability, T/C: 58.6%
[23]
  viability, T/C: 64.1%
[24]
  viability, T/C: 57.8%
[25]
  viability, T/C: 59.4%
[26]
  viability, T/C: 55.4%
[27]
  viability, T/C: 64.6%
[28]
  viability, T/C: 56.5%
[29]
  viability, T/C: 55.3%
[30]
  viability, T/C: 55.7%
[31]
  viability, T/C: 54.3%
[32]
  viability, T/C: 60.4%
[33]
  viability, T/C: 57.9%
[34]
  viability, T/C: 55.5%
[35]
  viability, T/C: 59.3%
[36]
  viability, T/C: 55.4%

— PubChem BioAssay AID2060498 (Molecular Pharmacology Branch, DTP, NCI, 2025)
